Measurements: ChEMBL document CHEMBL1201862, “PubChem BioAssay data set” (2004)
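Briefly, cells in 96-well plates were exposed to five compound concentrations for 48 h, and endpoints were estimated by linear interpolation. GI50 marks 50% less growth.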 Active and inactive are the calls of the source. Rule as the data show it: active = GI50 up to about 1.1 µM and inactive = higher.

Tests used:
Test in all cases: NCI anticancer screen, dose series, 48 h
[1] = tested on: SK-MEL-2
[2] = tested on: Malme-3M
[3] = tested on: UO-31
[4] = tested on: SN12C
[5] = tested on: MCF7
[6] = tested on: HL-60
[7] = tested on: HCT-116
[8] = tested on: HT-29
[9] = tested on: OVCAR-8
[10] = tested on: T47D
[11] = tested on: SNB-19
[12] = tested on: 786-0
[13] = tested on: TK-10
[14] = tested on: EKVX
[15] = tested on: PC-3
[16] = tested on: IGROV-1
[17] = tested on: DU-145
[18] = tested on: NCI/ADR-RES

Measured: GI50

O=C(O)c1cccc2cccc(-c3cccc4cccc(C(=O)O)c34)c12
inactive: [1] > 100 µM | [2] > 100 µM | [3] > 100 µM | [4] > 100 µM | [5] > 100 µM | [6] > 100 µM | [7] > 100 µM | [8] > 100 µM | [9] > 100 µM | [10] > 100 µM | [11] > 100 µM | [12] > 100 µM | [13] > 100 µM | [14] > 100 µM | [15] > 100 µM | [16] > 100 µM | [17] > 100 µM | [18] > 100 µM

Clc1cccc(Cl)c1C(Nc1nncs1)Nc1nncs1
inactive: [1] 38.6 µM | [2] 64.4 µM | [3] 62.7 µM | [4] 38.4 µM | [5] 36 µM | [6] 17.3 µM | [7] 28.6 µM | [8] 14.1 µM | [9] 33.8 µM | [10] 56.8 µM | [11] 52 µM | [12] 28.7 µM | [13] 23.9 µM | [14] 43.9 µM | [15] 9.35 µM | [16] 55.3 µM | [17] 51.5 µM | [18] 50 µM

COc1ccc2cc(C(=O)NCCCNC(=O)c3ccc4cc(OC)ccc4c3)ccc2c1
inactive: [1] > 75.3 µM | [2] > 100 µM | [3] > 75.7 µM | [4] > 49.9 µM | [5] > 100 µM | [6] > 100 µM | [7] > 86.7 µM | [8] > 100 µM | [9] 22.6 µM | [10] > 75.7 µM | [11] 17.2 µM | [12] 19.6 µM | [13] 45.4 µM | [14] 49.8 µM | [15] > 100 µM | [16] 39.4 µM | [17] > 100 µM | [18] > 61.5 µM

C[C@]12CCC(=O)C=C1C[C@@H](O)[C@@H]1[C@@H]2CC[C@@]2(C)[C@H]1CC[C@]2(C)O
inactive: [1] > 100 µM | [2] > 100 µM | [3] > 100 µM | [4] > 100 µM | [5] > 100 µM | [6] > 100 µM | [7] > 100 µM | [8] > 100 µM | [9] > 100 µM | [10] > 100 µM | [11] > 100 µM | [12] > 100 µM | [13] > 100 µM | [14] > 100 µM | [15] > 100 µM | [16] > 100 µM | [17] > 100 µM | [18] > 100 µM

O=C1/C(=N\n2c(S)nnc2-c2ccncc2)c2cc(Cl)ccc2N1CN1CCCCC1
inactive: [1] 20.9 µM | [2] > 100 µM | [3] 56.5 µM | [4] 55.8 µM | [5] 31.2 µM | [6] 13.1 µM | [7] 37.8 µM | [8] 31.2 µM | [9] 31.8 µM | [10] 23.1 µM | [11] 76 µM | [12] 27.7 µM | [13] 30.3 µM | [14] 4.65 µM | [15] 34.5 µM | [16] 16.1 µM | [17] 29.6 µM | [18] 57.5 µM

CC1=C(C(=O)N(C)c2ccc(Cl)c(C(=O)OC(C)C)c2)SCCO1
inactive: [1] > 100 µM | [2] 72.3 µM | [3] 27.2 µM | [4] > 100 µM | [5] 66.5 µM | [6] 33.7 µM | [7] 59.2 µM | [8] 46.7 µM | [9] 70.6 µM | [10] 31.2 µM | [11] 74.6 µM | [12] > 100 µM | [13] 84.7 µM | [14] 41.8 µM | [15] 38.5 µM | [16] 98.6 µM | [17] > 100 µM | [18] 26.7 µM

CN1CN(c2ccccc2)C2(CCN(CCCC3(c4cccs4)OCCO3)CC2)C1=O
inactive: [1] > 100 µM | [2] > 100 µM | [3] > 100 µM | [4] > 100 µM | [5] > 100 µM | [6] > 100 µM | [7] > 100 µM | [8] 36.1 µM | [9] > 100 µM | [10] > 100 µM | [11] > 100 µM | [12] > 100 µM | [13] > 100 µM | [14] > 100 µM | [15] > 100 µM | [16] > 100 µM | [17] > 100 µM | [18] > 100 µM

C=CCCCCNC(=O)C[C@@H]1C2=C(CC[C@H]1O[Si](C)(C)C(C)(C)C)N1C(=O)CCC/C=C\C1C2 (stereo partly drawn)
inactive: [1] 13.2 µM | [2] 14.7 µM | [3] 14.2 µM | [4] 15.4 µM | [5] 12.2 µM | [6] 1.84 µM | [7] 13.3 µM | [8] 12.3 µM | [9] 14.9 µM | [10] 12.7 µM | [11] 14.4 µM | [12] 15.4 µM | [13] 16.1 µM | [14] 17.3 µM | [15] 12 µM | [16] 15.6 µM | [17] 15 µM | [18] 12.2 µM

CNC(=O)OCC1=C(COC(=O)NC)C(C)N(c2ccc(OC)cc2)C1 (stereo not drawn)
inactive: [1] > 100 µM | [2] > 100 µM | [3] 41.6 µM | [4] > 100 µM | [5] 50.6 µM | [6] 23.8 µM | [7] > 100 µM | [8] 64.9 µM | [9] 80.4 µM | [10] 37.1 µM | [11] > 100 µM | [12] 57 µM | [13] 11.5 µM | [14] > 100 µM | [15] 71.6 µM | [16] 29 µM | [17] > 100 µM | [18] 60.4 µM

c1ccc(CN2CCC(=NN3CCCCC3)CC2)cc1
inactive: [1] > 100 µM | [2] > 100 µM | [3] 64.7 µM | [4] > 100 µM | [5] 43.3 µM | [6] 20.1 µM | [7] 64.1 µM | [8] 32.4 µM | [9] 65.2 µM | [10] 37.1 µM | [11] > 100 µM | [12] > 100 µM | [13] 86.7 µM | [14] > 100 µM | [15] 54.8 µM | [16] > 100 µM | [17] > 100 µM | [18] > 100 µM

C#CCCCOc1ncccn1
inactive: [1] > 100 µM | [2] > 100 µM | [3] > 100 µM | [4] > 100 µM | [5] > 100 µM | [6] > 100 µM | [7] > 100 µM | [8] > 100 µM | [9] > 100 µM | [10] > 100 µM | [11] > 100 µM | [12] > 100 µM | [13] > 100 µM | [14] > 100 µM | [15] > 100 µM | [16] > 100 µM | [17] > 100 µM | [18] > 100 µM
